Measured values: patent US10577399B2, “Modified lantibiotics and methods of making and using the modified lantibiotics” (priority 2016, dated 2020)
Values after ≈ are worked out from the molar mass of the structure shown. “Also recorded” adds a separate entry of the source.

Key:
[1] = test system: B. subtilis PY79 cells; assay: Microscopy lipid II competition assay with fluorescein labeled nisin; type: cell-based, Bacillus subtilis; conditions: pretreatment 10 μg/mL for 15 minutes
Method: B. subtilis PY79 was grown and treated with fluorescein labeled peptide as previously described^39. A fresh plate of B. subtilis was used to inoculate THyex broth and incubated approximately 16 hours at 37° C. The culture was diluted 20-fold and placed back in the incubator for 3 hours at 37° C. Then, 100 μl of the culture was incubated with the antibiotic (10 μg/mL) for 15 minutes. The cells were pelleted and resuspended in 100 μl of phosphate buffer solution (PBS). The wash step was repeated three times before fixing with 1.6% formaldehyde in PBS. After fixation the cells were washed with PBS three more times and the remaining pellet was suspended in 50 μL of PBS. The sample (30 μL) was added to a slide and observed using an Olympus confocal microscope with a 100×/0.90 dry objective. A 488 nm argon laser was used to excite the fluorophore. For the competition assay, the bacterial culture was initially incubated with mu1140-COOH or native mutacin 1140 at a concentration of 10 μg/mL for 15 minutes, washed, and resuspended in fresh media. 10 μg/mL of fluorescein labeled nisin was then added for 15 minutes, before following the wash protocol previously stated.

[2] = Lipid II binding assay by thin layer chromatography; conditions: 3:10 peptide:lipid II ratio
Method: Lipid II was a kind gift from Eefjan Breukink and was resuspended in a 1:1 Methanol:Chloroform solution. The lipid II binding assay using thin layer chromatography (TLC) was done as previously described^39. The mobile solvent consisted of consisted of butanol:acetic acid:water:pyridine (15:3:12:10 [vol/vol/vol/vol]). A 0.2 mM solution of mutacin 1140 or mu1140-COOH in 10 μL of solution A was mixed with lipid II (final […]) for 1 hour in a sealed glass vial. This corresponded to a ratio 3:10 peptide:lipid II ratio. All of the reaction mixtures and the appropriate controls were spotted (5 μL) 2 cm from the bottom of the plate. These spots define the origin of the plate. […] The mobile phase was allowed to climb up the plate until it reached a centimeter from the top. The plate was allowed to dry before staining with iodine.
With the loss of activity associated with a free carboxyl group in mu1140-COOH, the basis for the loss in activity was studied. The mechanism of action for class I lantibiotics has been determined to be due to lipid II binding^34-36. In particular, rings A and B are believed to form a cage-like structure around the pyrophosphate moiety of lipid II^37. The latter half of the peptide is predicted to enhance binding and recruit other lipid II-lantibiotic molecules into a large lipid II-lantibiotic complex^16. […]

[3] = test system: S. pneumoniae ATCC 27336; type: cell-based, Streptococcus pneumoniae
Summary of the method: (§1)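 Broth microdilution: antibiotic in 50% acetonitrile, 2-fold dilutions from 640 μg/mL stock down to 0.156 μg/mL, 10 μL per well plus 190 μL of ~10^5 CFU bacteria grown in THyex at 37 °C. MIC read as concentration preventing visible growth after 24 h.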

[4] = test system: M. luteus ATCC 10240; type: cell-based, Micrococcus luteus
Summary of the method: as §1

[5] = Pharmacokinetics after intravenous dose in mice; type: in vivo; conditions: mouse, iv, 2.5 mg/kg i. v., BALB/c mice, polynomial second order estimate
Method: The compounds were dissolved in normal saline for all pharmacokinetic studies. An extraction protocol was developed in vitro by the addition of each compound to commercially bought BALB/c mouse serum. The compounds were extracted by the addition of 70% ACN containing 0.1% TFA/30% methanol containing 0.4% formic acid. The extract was then analyzed by LC-MS using a TSQ Vantage Triple Quad mass spectrometer. A standard curve was generated for each compound using known dilutions of the compounds in serum, which was then extracted. The R-squared values for each standard exceeded 0.98. BALB/c mice were used to evaluate pharmacokinetics of the compounds in vivo. A 2.5 mg/kg i. v. dose was evaluated for native mutacin, R13A, S5G, and double mutant S5A:T14G (FIG. 12A). A polynomial second order was used to estimate the peak plasma concentration and half-life of the R13A. […] Possibly, the Dhb14 residue may protect the peptide from trypsin-like proteases in the blood. […] Thus, taking the dynamics of cell death into account and the pharmacokinetics of the R13A, the R13A in serum is above the inhibitory concentration for S. pneumonia long enough to kill the pathogen.

[6] = test system: trypsin; assay: Trypsin stability screen with M. luteus overlay; type: in vitro ADME; conditions: 0.5 mg/mL trypsin, 37° C., 30 minutes
Description: Selective activity and stability of analogs: Several core peptide mutants are provided that have improved activity against our ATCC strain of S. pneumoniae. These core peptide mutants were also selected based on the absence of a dehydrated residue Dha/Dhb or the proteolytically susceptible arginine residue. […] Although the analog S5G had improved activity against S. pneumoniae ATCC 27336 compared to native mutacin and R13A, the S5G had less activity against all other tested strains of S. pneumoniae. […] 4) The R13A mutation prevents feedback inhibition of mutacin 1140 production, leading to a 100% increase in yield from the culture liquor. […] They are important for immunoregulation and blood coagulation. The observed increase in stability of the R13A analog will likely be advantageous in an animal model.

[7] = Solubility in saline; type: physicochemical; conditions: saline solution

Row | Structure (SMILES) | binding of fluorescein labeled nisin after pretreatment of cells [1] | iodine stain at the origin of the TLC plate when mixed with lipid II [2] | MIC (μg/mL) S. pneumoniae ([3]; Table 7, S. pneumoniae ATCC 27336) | reduction in activity (MIC, S. pneumoniae ATCC 27336) ([3]; vs wild type mutacin 1140) [fold] | MIC (μg/mL) M. luteus ([4]; Table 7, chemically modified analogs) [µg/mL] | reduction in activity compared to wild type mutacin 1140 (MIC, M. luteus) ([4]; vs wild type mutacin 1140) [fold] | half-life ([5]; in vivo, read-out: estimated half-life) [h] | Cmax ([5]; plasma, read-out: peak plasma concentration) [ng/mL] | stability to trypsin [6] | solubility [7] [µg/mL] | MIC ([4]; Table 10, indicator strain Micrococcus luteus) [µg/mL]
1 | C=C1NC(=O)[C@H](Cc2c[nH]c3ccccc23)NC(=O)[C@H](NC(=O)[C@H](CCCCN)NC(=O)[C@@H](N)Cc2ccccc2)CSC[C@@H](C(=O)N[C@H]2C(=O)N3CCC[C@H]3C(=O)NCC(=O)N[C@H](C(=O)N[C@@H](C)C(=O)N[C@@H](CCCNC(=N)N)C(=O)N/C(=C\C)C(=O)NCC(=O)N[C@@H]3CSC[C@@H]4NC(=O)[C@H](Cc5ccc(O)cc5)NC(=O)[C@@H](CSC[C@@H](C(=O)O)NC4=O)NC(=O)[C@H](CC(N)=O)NC(=O)[C@H](Cc4ccccc4)NC3=O)CS[C@H]2C)NC(=O)[C@H](CC(C)C)NC1=O [Mu1140 - COOH] | no typical in vivo fluorescence pattern was observed; also recorded: drastically reduces binding of fluorescein labeled nisin | faint stain | greater than 64 μg/mL | > 128 | 32 (≈ 13.8 µM) | 256 | – | – | – | – | –
2 | C=C1NC(=O)[C@H](Cc2c[nH]c3ccccc23)NC(=O)C(NC(=O)[C@H](CCCCN)NC(=O)[C@@H](N)Cc2ccccc2)CSC[C@@H](C(=O)NC2C(=O)N3CCC[C@H]3C(=O)NCC(=O)N[C@H](C(=O)N[C@@H](C)C(=O)N[C@@H](C)C(=O)NC(=CC)C(=O)NCC(=O)NC3CSC[C@@H]4NC(=O)[C@H](Cc5ccc(O)cc5)NC(=O)[C@@H](CS/C=C\NC4=O)NC(=O)[C@H](CC(N)=O)NC(=O)[C@H](Cc4ccccc4)NC3=O)CSC2C)NC(=O)[C@H](CC(C)C)NC1=O (some centres unmarked) [Mutant R13A] | – | – | – | – | – | – | 1.17 | 1700 | improved stability | > 2000 | 0.0625 (≈ 0.0287 µM)
